# Reference: the supplement of paper PMC6045584
# ± gives the standard deviation of the averaged measurements.
# Key:
# ABIRATERONE = compound: C[C@]12CC[C@H](O)CC1=CC[C@@H]1[C@@H]2CC[C@]2(C)C(c3cccnc3)=CC[C@@H]12 [ABIRATERONE]; assay: surviving fraction relative to DMSO-only wells; higher = less growth inhibition; conditions: exposure time: 5 days
# Summary of the method: (§1)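 Tumour cell lines were seeded in log phase at 250–500 cells per well into 384-well plates. Starting 24 hours later, inhibitors were present continuously for five days at 0.5, 1, 5, 10, 50, 100, 500 and 1000 nM. Surviving fraction, from CellTiter-Glo luminescence, is normalised to the median of DMSO-only wells. Three screens per line were required, with replicate Pearson r >0.7 and median Z' >0.3 for a line to be kept.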
# SOTRASTAURIN/AEB071 = compound: CN1CCN(c2nc(C3=C(c4c[nH]c5ccccc45)C(=O)NC3=O)c3ccccc3n2)CC1 [SOTRASTAURIN/AEB071]; assay: as above; conditions: exposure time: 5 days
# Summary of the method: as §1
Test System,surviving fraction (ABIRATERONE; 0.5 nM),surviving fraction (ABIRATERONE; 1 nM),surviving fraction (ABIRATERONE; 5 nM),surviving fraction (ABIRATERONE; 10 nM),surviving fraction (ABIRATERONE; 50 nM),surviving fraction (ABIRATERONE; 100 nM),surviving fraction (ABIRATERONE; 500 nM),surviving fraction (ABIRATERONE; 1000 nM),surviving fraction (SOTRASTAURIN/AEB071; 0.5 nM),surviving fraction (SOTRASTAURIN/AEB071; 1 nM),surviving fraction (SOTRASTAURIN/AEB071; 5 nM),surviving fraction (SOTRASTAURIN/AEB071; 10 nM),surviving fraction (SOTRASTAURIN/AEB071; 50 nM),surviving fraction (SOTRASTAURIN/AEB071; 100 nM),surviving fraction (SOTRASTAURIN/AEB071; 500 nM),surviving fraction (SOTRASTAURIN/AEB071; 1000 nM)
22RV1 PROSTATE,1.06 ± 0.047,1.09 ± 0.086,1.07 ± 0.062,1.09 ± 0.047,1.11 ± 0.029,1.09 ± 0.051,1.17 ± 0.067,1.08 ± 0.054,1.08 ± 0.014,1.11 ± 0.026,0.985 ± 0.013,1.05 ± 0.054,1.24 ± 0.26,1.2 ± 0.17,1.06 ± 0.099,1.03 ± 0.051
93VU HEADNECK,1.2 ± 0.027,1.15 ± 0.12,1.12 ± 0.031,1.2 ± 0.024,1.32 ± 0.038,1.19 ± 0.056,1.17 ± 0.12,1.11 ± 0.12,1.03 ± 0.011,1.01 ± 0.036,1.07 ± 0.1,0.9817 ± 0.005,0.919 ± 0.067,0.887 ± 0.039,0.757 ± 0.055,0.789 ± 0.048
143B BONE,1.04 ± 0.013,1.046 ± 0.005,1.05 ± 0.023,1.03,1.06 ± 0.035,1.07 ± 0.035,1.02 ± 0.012,1.01 ± 0.029,1.067 ± 0.0071,1.08 ± 0.037,1.14 ± 0.14,1.04 ± 0.014,1.09 ± 0.037,1.14 ± 0.11,1.12 ± 0.096,1.09 ± 0.063
A549 LUNG,1.04 ± 0.05,1.03 ± 0.059,1.05 ± 0.01,1.04 ± 0.045,1.1 ± 0.049,1.11 ± 0.019,1.08 ± 0.12,1.09 ± 0.087,1.059 ± 0.0099,1.11 ± 0.015,1.076 ± 0.0085,1.06 ± 0.017,1.07 ± 0.021,1.102 ± 0.0085,1.07 ± 0.03,1.06 ± 0.048
ASKA SYNOVIAL,1.19 ± 0.076,1.19 ± 0.11,1.23 ± 0.076,1.11 ± 0.11,1.2 ± 0.059,1.28 ± 0.069,1.19 ± 0.099,1.04 ± 0.1,1.14 ± 0.086,1.1 ± 0.074,1.18 ± 0.057,1.2 ± 0.097,1.03 ± 0.073,1.02 ± 0.028,0.998 ± 0.068,0.995 ± 0.077
BT20 BREAST,1.17 ± 0.082,1.04 ± 0.23,1.22 ± 0.11,1.21 ± 0.2,1.12 ± 0.23,1.14 ± 0.15,1.13 ± 0.16,1 ± 0.14,1.12 ± 0.043,1.14 ± 0.11,1.19 ± 0.052,1.15 ± 0.024,0.836 ± 0.013,0.893 ± 0.15,0.912 ± 0.029,0.972 ± 0.055
BT549 BREAST,0.768 ± 0.079,1.07 ± 0.083,0.991 ± 0.012,1.02 ± 0.059,0.92 ± 0.067,1.15 ± 0.13,1.07 ± 0.038,1.2 ± 0.17,0.889 ± 0.093,1.06 ± 0.068,1.01 ± 0.19,1.16 ± 0.2,0.904 ± 0.095,0.897 ± 0.035,0.919 ± 0.12,1.07 ± 0.16
C33A CERVIX,1.19 ± 0.19,1.13 ± 0.059,1.19 ± 0.063,1.03 ± 0.022,1.12 ± 0.08,1.17 ± 0.068,1.2 ± 0.027,1.06 ± 0.13,0.938 ± 0.17,1.05 ± 0.059,1.14 ± 0.045,1.05 ± 0.12,1.19 ± 0.071,1.16 ± 0.13,1.14 ± 0.077,1.2 ± 0.086
CADOES1 SOFT TISSUE,0.958 ± 0.12,1.03 ± 0.061,0.978 ± 0.11,0.943 ± 0.04,1 ± 0.025,1.11 ± 0.055,1.04 ± 0.14,0.955 ± 0.061,1.04 ± 0.11,0.908 ± 0.11,1 ± 0.18,0.926 ± 0.1,0.923 ± 0.019,0.973 ± 0.14,1.04 ± 0.055,0.962 ± 0.18
CAL51 BREAST,0.988 ± 0.068,0.984 ± 0.019,1.03 ± 0.043,0.964 ± 0.039,1.02 ± 0.048,1.04 ± 0.044,1.02 ± 0.048,1.02 ± 0.028,0.993 ± 0.025,0.969 ± 0.071,0.933 ± 0.031,0.962 ± 0.05,0.968 ± 0.077,1.04 ± 0.04,0.938 ± 0.077,0.824 ± 0.05
CAL72 BONE,1.087 ± 0.0031,1.1 ± 0.023,1.09 ± 0.056,1.09 ± 0.043,1.16 ± 0.012,1.15 ± 0.019,1.13 ± 0.048,1.07 ± 0.027,1.1 ± 0.021,1.09 ± 0.029,1.05 ± 0.029,1.08 ± 0.014,1.05 ± 0.04,1.08 ± 0.072,1.06 ± 0.044,1.1 ± 0.015
CAL120 BREAST,0.954 ± 0.011,1 ± 0.015,1.01 ± 0.013,1.01 ± 0.011,1.04 ± 0.059,1.04 ± 0.041,1.05 ± 0.028,0.988 ± 0.037,1.03 ± 0.042,1.01 ± 0.054,1.01 ± 0.03,1.02 ± 0.035,0.985 ± 0.051,0.955 ± 0.035,0.976 ± 0.046,0.981 ± 0.009
CASKI CERVIX,0.924 ± 0.015,0.884 ± 0.044,1.04 ± 0.1,1.03 ± 0.018,1.08 ± 0.027,1.1 ± 0.014,1.09 ± 0.032,1.11 ± 0.05,0.955 ± 0.051,0.962 ± 0.08,0.974 ± 0.035,0.906 ± 0.026,0.989 ± 0.12,0.898 ± 0.047,0.975 ± 0.021,0.863 ± 0.036
CHLA90 AUTONOMIC GANGLIA,1.01 ± 0.064,1.07 ± 0.043,1.06 ± 0.023,1.05 ± 0.044,1.05 ± 0.052,0.993 ± 0.096,1.08 ± 0.017,1.09 ± 0.05,0.975 ± 0.024,0.962 ± 0.046,1.02 ± 0.074,0.943 ± 0.081,1.05 ± 0.12,1 ± 0.083,1.06 ± 0.097,0.978 ± 0.17
CME SYNOVIAL,1.28 ± 0.1,1.38 ± 0.15,1.43 ± 0.15,1.29 ± 0.086,1.37 ± 0.17,1.37 ± 0.029,1.34 ± 0.18,1.2 ± 0.18,1.28 ± 0.26,1.3 ± 0.18,1.31 ± 0.13,1.38 ± 0.22,0.978 ± 0.13,1.21 ± 0.2,1.14 ± 0.059,1.12 ± 0.059
COLO320DM LARGE INTESTINE,1.13 ± 0.084,1.09 ± 0.033,1.11 ± 0.07,1.17 ± 0.057,1.26 ± 0.19,1.1 ± 0.062,1.2 ± 0.38,1.02 ± 0.027,1.09 ± 0.06,1.05 ± 0.14,1 ± 0.046,1.08 ± 0.12,1.01 ± 0.084,1.07 ± 0.047,0.994 ± 0.056,1.05 ± 0.059
